Data published in US6338963B1, “Use of carbon monoxide dependent guanylyl cyclase modifiers to stimulate neuritogenesis” (NeoTherapeutics, Inc., priority 1994, dated 2002).
“And” between values parts separate entries of the source, which are not always exact repeats. Equal entries are not always repeated.

Legend:
[1] = Plasma levels of AIT-082 in mice (HPLC); format: in vivo; conditions: 30 mg/kg i.p., C57BL/6 mice, estimated
Experimental: Adult C57BL/6 mice were administered 30 mg/kg of AIT-082 in saline i.p. The animals were sacrificed by decapitation at […] after administration of AIT-082. Blood was collected in heparinized tubes, mixed and centrifuged at 2000 rpm for 15 minutes. The plasma supernatant was removed and stored at −70° C. until analysis. A high pressure liquid chromatography system was developed for the analytical measurement of AIT-082 in plasma and brain tissue. The assay developed was selective for AIT-082 in the presence of a number of closely related purine molecules. The sensitivity of the method was 0.1 microgram of AIT-082 per ml of plasma and 0.1 microgram of AIT-082 per milligram of brain tissue (wet weight).
The results of these determinations graphically represented in FIG. 1 where plasma levels of AIT-082 are provided at 5, 10, 15, 20, 30, 60, 90, and 120 minutes after administration of 30 mg/kg i.p. to C57BL/6 mice. From the data, it was estimated that the blood level of AIT-082 reached its peak at approximately 15 minutes.

[2] = Brain tissue levels of AIT-082 (HPLC); format: in vivo, C57BL/6 mice; conditions: for Level of AIT-082 in brain tissue: 30 mg/kg i.p., 30 minutes after administration, 30 mg/kg
PC12 cells = experiment: Neuritogenesis in PC12 cells; format: cell-based, rat; design: key to Neuritogenesis: fraction of cells bearing neurites (mean ± SEM)
Summary of the method: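 Rat pheochromocytoma PC12 cells on poly-ornithine were treated with AIT-082 alongside saturating NGF (40 ng/ml) from plating for 48 h, then formalin-fixed. Neurites ≥1 cell-body diameter with growth cone were counted; the neurite-bearing fraction is expressed relative to NGF alone (100%), mean ±SEM of 6 cultures.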

mice = experiment: Prophylaxis of age-induced memory deficit (win-shift, monthly); format: in vivo; conditions: 30 mg/kg/day in drinking water from 14 months of age
Experimental: It has been observed that age-induced memory deficits typically begin to manifest themselves in mice between 14 and 16 months of age. Therefore, the treatment of mice was begun at 14 months of age with AIT-082 (30 mg/kg/day) in their drinking water. The animals were measured monthly for their memory using the win-shift foraging tests previously described.

NGF = NGF release from rat cultured astrocytes (ELISA); format: cell-based; conditions: for release of NGF from astrocytes: exposure for 24 hours
Experimental: The dose response for AIT-082 and guanosine on nerve growth factor and S100β protein release from rat culture astrocytes is shown in FIG. 30. NGF was assayed by a double-site ELISA, using a monoclonal anti-NGF antibody, coupled or not to β-galactosidase according to the method of I. D. Laviada et al., “Phosphatidylcholine-Phospholipase C Mediates the Induction of Nerve Growth Factor in Cultured Glial Cells,” FEBS Lett. 364: 301-304 (1995).
The NGF and S100β protein were measured by removing the cultured medium for the ELISA assays at each indicated time point.
NGF and TGFβ2 levels were assayed in the culture medium of the astrocytes by specific ELISA assays using kits from Roche (Germany) and Promega (USA) respectively. NGF basal levels were 56.3±3.2 pg/ml. TGFβ2 levels were 9.1±0.06 pg/ml.
In FIG. 61, the dose-response curves of NGF and TGFβ2 release from rat cultured astrocytes as the result of exposure to AIT-082 are shown.

NT-3 mRNA = experiment: RT-PCR of growth factor mRNA after T8 spinal cord hemisection: NT-3; format: in vivo, Wistar rats
TGFβ2 = experiment: Western blot of astrocyte cytosolic proteins: TGFβ2; format: cell-based, rat
Experimental: Western blot analysis of cytosolic proteins from cultured astrocytes was performed to detect the factors NGF and TGFβ2. The results are shown in FIG. 58A for NGF at 6 and 12 hours and in FIG. 58B for TGFβ2 at 6 and 12 hours.
Western blot analysis of cytosolic proteins deriving from cultured astrocytes treated for 6 or 12 hours with 100 μM AIT-082 was performed. AIT-082 is able to promote the production of neurotrophic factors from rat cultured astrocytes as measured by Western blot analysis. The results are shown in FIG. 62A for NGF and in FIG. 62B for TGFβ2. Electrophoresis was performed in 12% (for NBF) or 15% (for TGFβ2) SDS-PAGE (20 μg of total protein per lane). The separated proteins were transferred onto a PVDF membrane (Bio-Rad Laboratories, Italy).

## O=C(CCn1cnc2c(=O)[nH]cnc21)Nc1ccc(C(=O)O)cc1 [AIT-082, N-4-carboxyphenyl-3-(6-oxohydropurin-9-yl)propanamide]
[1]
  time at which blood level of AIT-082 reached its peak: approximately 15 minutes
[2]; 30 minutes after oral administration
  level detected in brain: ≤ 3.3 ng/mg brain tissue
[2]; Cortex
  Level of AIT-082 in brain tissue: 2.8 ng/mg brain tissue and 3.4 ng/mg brain tissue
[2]; Remainder of brain
  Level of AIT-082 in brain tissue: 2.3 ng/mg brain tissue and 3.3 ng/mg brain tissue
[2]; brain tissue after 30 minutes
  passage of the blood-brain barrier: crosses the blood-brain barrier without degradation
PC12 cells; AIT-082 10 μM, L-NAME 0.1 μM
  Neuritogenesis: 0.220 ± 0.010
PC12 cells; AIT-082 10 μM, L-NAME 1.0 μM
  Neuritogenesis: 0.302 ± 0.027
PC12 cells; AIT-082 10 μM, L-NAME 10.0 μM
  Neuritogenesis: 0.254 ± 0.018
PC12 cells; AIT-082 10 μM, L-NAME None
  Neuritogenesis: 0.254 ± 0.008
PC12 cells; AIT-082 100 μM, L-NAME 0.1 μM
  Neuritogenesis: 0.257 ± 0.016
PC12 cells; AIT-082 100 μM, L-NAME 1.0 μM
  Neuritogenesis: 0.232 ± 0.019
PC12 cells; AIT-082 100 μM, L-NAME 10.0 μM
  Neuritogenesis: 0.289 ± 0.006
PC12 cells; AIT-082 100 μM, L-NAME None
  Neuritogenesis: 0.309 ± 0.027
PC12 cells; AIT-082 10 mM + NGF 40 ng/ml, no inhibitor
  Proportion of cells bearing neurites, AIT-082 + NGF: 0.26 ± 0.01
PC12 cells; AIT-082 10 mM, no NGF, no inhibitor, 48 hours
  Proportion of cells bearing neurites, AIT-082 alone: 0.2 ± 0.02
PC12 cells; AIT-082 + NGF 40 ng/ml, Methemoglobin 1 μM
  Proportion of cells bearing neurites, AIT-082 + NGF: 0.17 ± 0.02
PC12 cells; AIT-082 + NGF 40 ng/ml, Methylene Blue 5 μM
  Proportion of cells bearing neurites, AIT-082 + NGF: 0.10 ± 0.01
PC12 cells; AIT-082 + NGF 40 ng/ml, Zn Protoporphyrin IX 1 μM
  Proportion of cells bearing neurites, AIT-082 + NGF: 0.13 ± 0.01
PC12 cells; PC12 cells, 48 hours
  concentration effective in stimulating neuritogenesis and enhancing NGF-stimulated neuritogenesis: 1 mM
  neuritogenesis compared with NGF: as effective as NGF
PC12 cells; with 40 ng/ml NGF, 48 hours
  enhancement of the optimal effects of NGF on neuritogenesis: 30%
mice
  onset and severity of age-induced memory deficits: delayed the onset and severity of memory deficits
NGF; AIT-082 100 μM
  time after exposure at which release of NGF was enhanced: 12 h
  time of maximum release of NGF: 24 h
NGF
  release of NGF from astrocytes: dose-dependent increase
NGF; rat cultured astrocytes
  increase of NGF production as compared to a control: about 2.5 fold
NT-3 mRNA; at the level of the lesion
  NT-3 mRNA level: no significant differences
NT-3 mRNA; caudal to lesion, 7 days
  NT-3 mRNA level: no significant effects
NT-3 mRNA; caudal to lesion, control animals, 3 days
  NT-3 mRNA level: decreased
TGFβ2; 100 μM AIT-082, 6 or 12 hours
  intracellular levels of TGFβ2: increased in time-dependent manner

## Nc1nc2c(ncn2[C@@H]2O[C@H](CO)[C@@H](O)[C@H]2O)c(=O)[nH]1 [guanosine]
PC12 cells; compound alone
  neurite outgrowth in the absence of NGF: slightly increased the proportion of cells with neurites
PC12 cells; in the presence of NGF, 48 hours
  enhancement of NGF-induced neurite outgrowth: enhanced the neurite outgrowth induced by NGF
NGF
  release of NGF from astrocytes: dose-dependent increase
TGFβ2; guanosine, 6 and 12 hours
  intracellular content of TGFβ2: increased the intracellular content of NGF and TGFβ2 in time-dependent fashion
